One series in a line: in vitro. The conditions noted are these: PAMPA.
Series [1] deals with striatal monoamines and metabolites. To be noted: for concentration reached in the brain: mouse, in vivo.
Experimental: The delivery of dopamine by the prodrug was thus indirectly assessed by measuring dopamine levels in the striatal tissue of mice following treatment with the prodrug. For this purpose, the measurement of dopamine metabolites and other monoamine neurotransmitters and their metabolites was also included. […] Another four groups (n = 3 mice/group) were treated in the same manner by intraperitoneal injection. The animals were sacrificed 60 min after treatment, the striata were dissected and the concentrations of dopamine, 3,4-dihydroxyphenylacetic acid (DOPAC), homovanillic acid (HVA), noradrenaline, serotonin and 5-hydroxyindoleacetic acid (HIAA) were measured [40].
Male C57BL/6 mice were weighed and allocated into 4 groups of 3 mice each. […] A second set of 4 groups (n = 3) were treated in the same manner by intraperitoneal injection. All solutions were prepared in sterile saline and administered at volumes of 0.1 mL for oral gavage and 0.2 mL for intraperitoneal injection. The animals were euthanised 60 min after treatment and the striata were dissected and stored at −80 °C until the day of the experiment. The concentrations of dopamine, 3,4-dihydroxyphenylacetic acid (DOPAC), homovanillic acid (HVA), noradrenaline, serotonin and 5-hydroxyindoleacetic acid (5-HIAA) were determined according to the published protocol, and are reported as mean ± standard deviation of each group [40]. Prism version 5 (GraphPad Software, San Diego, CA, USA) was used for the statistical analyses and for the preparation of graphical presentations. Data were analysed by one-way analysis of variance (ANOVA) across all groups, and were subsequently subjected to the Dunnett’s post-hoc test to determine statistical differences between the means. A p-value of <0.05 indicates a statistically significant difference.
The subject of another series is brain MAO-B. The conditions noted are these: cited from earlier work.
The conditions of series [2]: PAMPA, 5 h, 200 µM.
Experimental: (§5) The HPLC system consisted of an Agilent 1200 series HPLC system with a binary gradient pump, autosampler and vacuum degasser coupled to an Agilent 1200 series variable-wavelength detector (Santa Clara, CA, USA). The analyses were carried out with Venusil XBP C18 column (4.60 mm × 150 mm, 5 μm, Bonna-Agela Technologies, Wilmington, DE, USA). […] The effluent was monitored at 276 nm. […] The effluent was monitored at 280 nm. A volume of 20 µL of the samples was injected into the HPLC system.
(§6) The precoated parallel artificial membrane permeability assay (PAMPA) plate system was obtained from BD Biosciences. Prior to use, the pre-coated PAMPA plates were warmed to room temperature for at least 30 min. Once warmed to room temperature, the plate system was used within 24 h. A volume of 300 µL of the test compound solution in potassium phosphate buffer (100 mM, pH 6.4, 7.4 and 7.8) or in sodium acetate buffer (50 mM, pH 3.7, 4.7 and 5.7) was added per well in the receiver/donor plate (bottom). The final concentration of the test compounds was 200 µM in each well. A volume of 200 µL of potassium phosphate buffer (100 mM, pH 6.4, 7.4 and 7.8) or sodium acetate buffer (50 mM, pH 3.7, 4.7 and 5.7) was then added per well to the filter/acceptor plate (top). The filter plate was placed on the receiver plate by slowly lowering the precoated PAMPA plate until it was seated on the receiver plate. The assembly was incubated at room temperature for 5 h. The precoated PAMPA plate and the receiver plate were separated. The compound concentrations were determined using the HPLC system described above. The permeability values are given as mean ± standard deviation of triplicate determinations [38].
The conditions of series [3]: cited from earlier work.
Details of series [4]: method as in PMID 20646792. To be noted: after oral administration of L-dopa prodrugs to rats; cited from earlier work.
A further series can be described thus: MTT cell viability assay. It counts as cell-based, human. To be noted: human, HeLa cells, read-out: percentage of viable cells remaining. An excerpt: (§1) For this purpose, the MTT cell viability assay was used. The MTT assay is a standard cell viability assay, measuring mitochondrial activity in live (metabolically viable) cells. Metabolically active mitochondria in viable cells have the ability to reduce MTT to coloured formazan crystals that can be quantitated spectrophotometrically. The presence of a toxic agent will reduce cell viability and thus limit the reduction of MTT to the formazan product. For this study, HeLa cells were selected. This selection was based on the high growth rate of HeLa cells and on the observation that these cells are frequently used to measure cell viability in the presence of toxic agents.
(§2) HeLa cells were maintained in 250 cm^2 flasks in 30 mL Dulbecco’s Modified Eagle Medium (DMEM) containing 10% fetal bovine serum, 1% penicillin (10,000 units/mL)/streptomycin (10 mg/mL) and 0.1% fungizone (250 µg/mL). The cells were incubated at 37 °C in an atmosphere of 10% CO2. Once confluent, the cells were seeded at 500,000 cells/well in 24-well plates and incubated for 24 h. A volume of 3 mL trypsin/EDTA (0.25%/0.02%) was used to facilitate cell detachment and the counting of cells was done with a haemocytometer. The wells were subsequently rinsed with 0.5 mL DMEM containing no fetal bovine serum. A volume of 0.99 mL DMEM (containing no fetal bovine serum) was subsequently added to each well followed by 10 µL of the test drug. Stock solutions of the test drugs were prepared in deionised water and sterilised via a 0.22 µm syringe filter. In each 24-well plate, wells were reserved as positive controls (100% cell death via lyses with 0.3% formic acid) and negative controls (0% cell death as a result of no treatment). The well-plates were incubated for a further 24 h after which the culture medium was aspirated from the cells. The wells were washed twice with 0.5 mL/well phosphate-buffered saline (PBS) and 200 µL of 0.05% MTT reagent (3-(4,5-dimethylthiazol-2-yl)-2,5-diphenyltetrazolium bromide) in PBS was added to each well. The well-plates were incubated at 37 °C for 2 h in the dark, the MTT reagent was aspirated from the wells and 250 µL isopropanol was added to each well. The well-plates were then incubated at room temperature for 5 min to dissolve the purple formazan crystals, whereafter 100 µL of the isopropanol phase was transferred to a 96-well plate. The absorbance of each isopropanol phase was measured spectrophotometrically at 560 nm.
(Tetrazolium dyes change colour on reduction, which living cells bring about.)

The next series deals with HeLa cells. The series can be described thus: MTT cell viability assay. The format is cell-based, human. The conditions noted are these: 100 µM, 24 h.
Excerpt: as §1, §2

On the set-up of series [5]: method as in PMID 19930170. The conditions noted are these: mice; oral administration of L-dopa and carbidopa; cited from earlier work.
Series [6] in a line: Plasma stability, rat plasma. It counts as in vitro ADME. To be noted: 37 °C, approx. 200 µM spiked. Here is the method:
(§3) The effluent was monitored at 276 nm. […] The effluent was monitored at 280 nm.
(§4) Plasma was collected in 0.5 mL MiniCollect® heparin plasma tubes (Greiner Bio-One, Kremsmünster, Austria) and centrifuged at 5500 rpm. Liver and brain tissue were collected, placed on ice and rinsed with 0.25 M sucrose dissolved in water. Sucrose solution was added to the tissue at a ratio 1:3 (w/v), the tissues were cut into small pieces using scissors and homogenised by 2 passes (60 s each) using a Potter–Elvehjem homogeniser (1200 rev/min, Potter–Elvehjem, Kennesaw, GA, USA). Care was taken to cool the homogeniser in ice during this procedure. […] The stock solution was immediately diluted to approximately 200 µM into plasma or tissue homogenate (preheated to 37 °C) and the resulting mixtures were analysed by the HPLC method described above. For this purpose, 100 µL of the spiked plasma or tissue homogenate was added to 300 µL acetonitrile (containing formic acid 1%) in a Phree tube. The tube was vortexed for 2 min and filtered under vacuum (9–10 mmHg). The collected solvent was evaporated under a stream of air, and the residue was redissolved in 100 µL methanol. A volume of 300 µL water was added and 20 µL of the resulting solution was analysed by the HPLC system. […] The concentration of lazabemide was also determined.

Series [7] is described as follows: Ionisation constant (pKa) by potentiometric titration. The format is physicochemical. Here is the method:
The prodrug was titrated in 0.1 mL increments and the pH was recorded after each addition. A total of 1 mL KOH was added to fully neutralise the primary amine group of the prodrug. The results were subsequently tabulated according to the method described in literature, and the pKa value was calculated.

The nature of series [8]: Tissue stability, rat liver homogenate. The format is in vitro ADME. The conditions noted are these: 37 °C. Here is the method: as §3, §4
Series [9] in a line: Solubility in water and potassium phosphate buffer. It counts as physicochemical. The conditions noted are these: thermodynamic from solid, 37 °C. Here is the method:
This yielded a theoretical concentration of 6.0 mg/mL. The tubes were agitated for 24 h in a water bath at 37 °C and were subsequently centrifuged at 16,000× g for 10 min. The samples were filtered through a 0.22 µm syringe filter and diluted 150-fold into water or potassium phosphate buffer (100 mM, pH 7.4). The absorbances of the resulting solutions were recorded at a wavelength of maximal absorbance of 276 nm.

Series [10] is described as follows: Chemical stability in aqueous buffer (HPLC). It counts as physicochemical. To be noted: 50 µM, room temperature. Here is the method: as §3
The stock solution was immediately diluted to 50 µM and the resulting solution was analysed by the HPLC method described above. The first injection served as reference point, after which the same solution was again injected at 1 h, 3 h, 6 h, 9 h and 11 h. During this time, the test solution remained at room temperature in the autosampler tray. The stabilities of the prodrug in the selected buffer phases are reported as the percentage mean ± standard deviation of the first injection, which served as reference point.

A short description of series [11]: Plasma stability, human plasma. It counts as in vitro ADME. To be noted: 37 °C, approx. 200 µM spiked. Here is the method:
as §3, §4

Series [12] can be described thus: Shake-flask logD determination (n-octanol/buffer). The conditions noted are these: n-octanol/potassium phosphate buffer 100 mM.
Experimental: (§7) n-Octanol (analytical reagent from Sigma-Aldrich) and the appropriate buffer were mutually saturated in a separatory funnel. Potassium phosphate buffer (100 mM) at pH 6.4, 7.4 and 7.8 served as the aqueous buffer phases. […] The vessels were shaken by hand for 5 min and centrifuged at 4000× g for 10 min. […] The logD value at a given pH is equal to the logarithm of the octanol/buffer partition coefficients (D). […] LogD values are given as mean ± standard deviation of triplicate determinations. Using the same protocol as above, the logD values at pH 6.4, 7.4 and 7.8 for lazabemide were also determined.

In brackets after ≈: the same amount, converted by molar mass. Like-named read-outs stand apart in the source and are kept apart here. Where only a bound is given, the exact number is not on record here.

Experimental for in vitro: as §5, §6
Experimental for physchem: as §7

As for `NCCNC(=O)c1ccc(Cl)cn1` [Lazabemide], the Papp – broadly, the rate of passage across a membrane or cell layer, normalised by area and donor concentration – at 5 h, 200 µM in the series “in vitro” (pH 3.7) is 0.0427 ×10⁻⁶ cm/s; in “in vitro” (pH 4.7) it was 0.0871 ×10⁻⁶ cm/s; in the series “in vitro” (pH 5.7) it was 0.148 ×10⁻⁶ cm/s; in “in vitro” (pH 6.4), 0.355 ×10⁻⁶ cm/s; in “in vitro” (pH 7.4), 1.62 ×10⁻⁶ cm/s; in “in vitro” (pH 7.8), 2.14 ×10⁻⁶ cm/s. Further, the “concentration reached in the brain” value in [1] is recorded as “too low to be reliably detected”. Further, the “time for enzyme activity to return to baseline after drug discontinuation” value with brain MAO-B (MAO-B) is at most 36 h. In the series with brain MAO-B (at least 0.4 mg/kg every 12 h, patients with early Parkinson’s disease), the “inhibition of brain MAO-B” value was over 90%. Moreover, the logD (commonly the decadic logarithm of the distribution of all forms, ionised or not, between an organic phase and buffer at a given pH) is -1.18 in the series “physchem” (pH 6.4, LogD); -0.68 in the series “physchem” (pH 7.4, LogD); -0.63 in the series “physchem” (pH 7.8, LogD).
In the case of `N[C@@H](Cc1ccc(O)c(O)c1)C(=O)O` [L-Dopa], the logPe result in series [2] is recorded as “smaller than −7.99”. Moreover, the half-life entry in [3] is listed as “approximately 90 min”. Also, in [3] (oral, estimated), the “fraction of the administered oral dose reaching the brain unchanged” value is recorded as “less than 1%”. Moreover, the Papp at 5 h, 200 µM in the series “in vitro” (pH 3.7) was 0.0102 ×10⁻⁶ cm/s; in the series “in vitro” (pH 4.7) it was 0.00891 ×10⁻⁶ cm/s; in “in vitro” (pH 5.7) it was 0.00603 ×10⁻⁶ cm/s; in the series “in vitro” (pH 6.4), 0.0024 ×10⁻⁶ cm/s; in “in vitro” (pH 7.4), 0.00676 ×10⁻⁶ cm/s; in “in vitro” (pH 7.8), 0.00275 ×10⁻⁶ cm/s. The “plasma half-life of L-dopa” value in series [4] is 0.85 to 1.62 h. For the same compound, the viability at 24 h, 1 µM in “MTT cell viability assay” turned out to be 102 ± 4.19%. In addition, the viability at 24 h, 10 µM in the series “MTT cell viability assay” was 105 ± 5.24%. The viability at 24 h, 100 µM in the series “MTT cell viability assay” stood at 79%. In the series with HeLa cells, the “percentage of viable cells remaining” value amounted to 79.3 ± 13.0%. Besides, the “time to peak plasma levels” value in series [5] was 30 to 60 min. The “concentration reached in the brain” value in series [1] was “too low to be reliably detected”.
Take `N[C@@H](Cc1ccc(O)c(O)c1)C(=O)NCCNC(=O)c1ccc(Cl)cn1` [L-dopa–lazabemide prodrug]: the prodrug concentration remaining in series [6] (17 h) was 70.5 µM; in series [10] (pH 7.8, 11 h, relative to first injection), 90.3%; in series [11] (17 h), 64 to 68 µM. The stability in plasma result in series [6] (up to 8 h) is given as “relatively stable”; in series [11] (up to 8 h), “stable”. The Papp at 5 h, 200 µM in “in vitro” (pH 3.7) was 0.00955 ×10⁻⁶ cm/s; in “in vitro” (pH 4.7) it was 0.0155 ×10⁻⁶ cm/s; in “in vitro” (pH 5.7), 0.0195 ×10⁻⁶ cm/s; in “in vitro” (pH 6.4) it was 0.0195 ×10⁻⁶ cm/s; in “in vitro” (pH 7.4), 0.0295 ×10⁻⁶ cm/s; in the series “in vitro” (pH 7.8), 0.0468 ×10⁻⁶ cm/s. In addition, the pKa (commonly the pH at which an ionisable group is half protonated) in series [7] (amine group, titration with KOH in water) was determined as 7.25 ± 0.16. Moreover, the “fraction existing as neutral uncharged species” value in series [7] (pH 5.5) is 1–2%; in [7] (pH 7.4) it was “approximately 59%”. In “MTT cell viability assay”, the viability at 24 h, 1 µM came out at 112 ± 12%. For the same compound, in “MTT cell viability assay”, the viability at 24 h, 10 µM was 52.1 ± 14%. Besides, the viability at 24 h, 100 µM in the series “MTT cell viability assay” worked out at 35%. Moreover, the “percentage of viable cells remaining” value with HeLa cells is reported as 34.9 ± 7.94%. In addition, the half-life at 200 µM in series [8] (approximate, read-out: t½) was about 1 h. In series [8] (4 h incubation), the prodrug remaining is 37%. The “striatal DOPAC levels” value in series [1] (63.5 µmol/kg intraperitoneal, 60 min, vs saline) was “significant reduction”. Further, the “striatal serotonin and 5-HIAA levels” value in series [1] (63.5 µmol/kg oral gavage or ip, 60 min) is “not altered”. The striatal dopamine levels result in series [1] (63.5 µmol/kg oral gavage or ip, 60 min, vs saline) is recorded as “does not enhance”. Moreover, in series [1], the “concentration reached in the brain” value is reported as “too low to be reliably detected”. Moreover, the solubility (as a rule, the dissolved amount per volume that the medium holds) at 24 h is 6140 ± 730 µg/mL (≈ 16.2 mM) in [9] (aqueous buffer, potassium phosphate buffer pH 7.4, 6000 μg/mL theoretical, 24 h, read-out: Solubility, Amount Measured); 6280 ± 747 µg/mL (≈ 16.6 mM) in series [9] (water, 6000 μg/mL theoretical, 24 h, read-out: Solubility, Amount Measured); at least 6000 µg/mL in series [9] (water and potassium phosphate buffer, aqueous buffer, water and buffer pH 7.4, read-out: minimum solubility). Also, the “chemical stability in aqueous buffer” value in series [10] (pH 3.7–7.4, up to 11 h) was “stable”. The logD is 0.199 ± 0.002 in series [12] (n-octanol/potassium phosphate buffer, pH 7.4, LogD, pH 7.4); 0.319 ± 0.003 in [12] (n-octanol/potassium phosphate buffer, pH 7.8, LogD, pH 7.8); under 0 in series [12] (pH 6.4); “–4.58 ± 0.002” in series [12] (pH 6.4, listed as Prodrug).

The values are drawn from publication PMC6150007 (Molecules : A Journal of Synthetic Chemistry and Natural …, 2017).
